{"source": "ChEMBL document CHEMBL1137265", "about": "“Macrolactin N, a new peptide deformylase inhibitor produced by Bacillus subtilis” (Bioorg Med Chem Lett, 2006)", "key": {"[1]": {"tested_on": "Escherichia coli", "experiment": "Antibacterial activity against Escherichia coli KCTC 1924 by microdilution broth method", "assay_type": "functional"}, "[2]": {"tested_on": "Staphylococcus aureus", "experiment": "Antibacterial activity against Staphylococcus aureus RN4220 by microdilution broth method", "assay_type": "functional"}, "[3]": {"tested_on": "Bacillus subtilis", "experiment": "Antibacterial activity against Bacillus subtilis KCTC 1021 by microdilution broth method", "assay_type": "functional"}, "[4]": {"molecular_target": "T1, Peptide deformylase (Staphylococcus aureus, UniProt P68826)", "T1 sequence (P68826 whole entry)": "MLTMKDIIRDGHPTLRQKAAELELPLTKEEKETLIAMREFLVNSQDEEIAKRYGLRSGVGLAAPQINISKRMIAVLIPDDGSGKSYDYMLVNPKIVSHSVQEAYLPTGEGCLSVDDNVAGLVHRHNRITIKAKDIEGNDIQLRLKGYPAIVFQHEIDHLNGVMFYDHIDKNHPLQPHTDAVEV", "experiment": "Inhibition of Staphylococcus aureus peptide deformylase in presence of substrate f-MAS"}}, "data": [{"smiles": "CC1CCC/C=C/CCC(=O)CCC/C=C\\C=C\\[C@@H](O)C/C=C/C=C\\C(=O)O1", "note": "(some centres undefined)", "values": [{"measurement": "MIC", "setting": "[1]", "value": 100, "unit": "µg/mL"}, {"measurement": "MIC50", "setting": "[2]", "value": 100, "unit": "µg/mL"}, {"measurement": "MIC50", "setting": "[3]", "value": 100, "unit": "µg/mL"}, {"measurement": "IC50", "setting": "[4]", "value": 7.5, "unit": "µM"}]}]}
